Tested on: IL-1β release upon NLRP3 activation in peripheral blood mononuclear cells (PBMC)
Experiment: PBMC IC50 determination assay (inhibition of IL-1β release)
Type: cell-based
Details: Homo sapiens; IL-1β release from LPS-primed PBMC stimulated with ATP (5 mM) or nigericin (10 μM); ELISA or HTRF; corresponding sodium salts evaluated
Description: The compounds of the present disclosure were tested for their inhibitory activity against IL-1β release upon NLRP3 activation in peripheral blood mononuclear cells (PBMC).
Protocol A. PBMC were isolated from buffy coats by density gradient centrifugation on Histopaque-1077 (Sigma, cat no. 10771). Isolated cells were seeded into the wells of a 96-well plate and incubated for 3 h with lipopolysaccharide (LPS). Following medium exchange, the compounds of the present disclosure were added (a single compound per well) and the cells were incubated for 30 min. Next, the cells were stimulated either with ATP (5 mM) or nigericin (10 μM) for 1 h and the cell culture media from the wells were collected for further analysis.
The release of IL-1β into the media was determined by a quantitative detection of IL-1β in the media using an IL-1β enzyme-linked immunosorbent assay (ELISA) Ready-SET-Go!, eBioscience cat. No. 88-7261-88. Briefly, in a first step, high affinity binding plates (Corning, Costar 9018 or NUNC Maxisorp Cat No. 44-2404) were coated overnight at 4° C. with specific capture antibody included in the kit (anti-human IL-1β ref. 14-7018-68). Subsequently, plates were blocked with blocking buffer for 1 h at room temperature (rt) and after washing with a buffer (PBS with 0.05% Tween-20) incubated with protein standard and culture media. After 2 h of incubation at rt, plates were washed and incubated with biotinylated detection antibody included in the kit (anti-human IL-1β Biotin ref. 33-7110-68) for 1 h at rt. Plates were washed and incubated with HRP-streptavidin for 30 min at rt and washed again. The signal was developed after addition of 3,3′,5,5′-tetramethylbenzidine-peroxidase (TMB) until colour appeared and the reaction was stopped by 2 M H2SO4. A microplate spectrophotometer (BioTek) was used to detect signals with 450 nm. The detection range of IL-1β ELISA was 2-150 ng/ml.
Protocol B. PBMC were isolated from buffy coats by density gradient centrifugation on Histopaque-1077 (Sigma, cat no. 10771). Isolated cells were seeded into the wells (280,000 cells/well) of a 96-well plate and incubated for 3 h with lipopolysaccharide (LPS, 1 μg/ml diluted 1000× from a 1 mg/ml stock solution). The compounds of the present disclosure were added (a single compound per well) and the cells were incubated for 30 min. Next, the cells were stimulated with ATP (5 mM final concentration diluted 20× from a 100 mM stock solution) for 1 h and the cell culture media from the wells were collected for further analysis.
The release of IL-1β into the media was determined by quantitative detection of IL-1β in the media using HTRF®, CisBio cat. No. 62HIL1BPEH. Briefly, cell culture supernatant were dispensed directly into the assay plate containing antibodies labelled with the HTRF® donor and acceptor. A microplate spectrophotometer (BMG) was used to detect signals at 655 nm and 620 nm. The detection range of IL-1β HTRF® was 39-6500 pg/ml.

Q: For Cn1cc(N(CCN)S(=O)(=O)NC(=O)Cc2c3c(cc4c2CCC4)CCC3)cn1 [Example 22, N-[(2-Aminoethyl)(1-methyl-1H-pyrazol-4-yl)sulfamoyl]-2-(1,2,3,5,6,7-hexahydro-s-indacen-4-yl)acetamide], which IC50 is on record?
A: 10 to 50 µM

Q: For CC(C)c1cc(CC(=O)NS(=O)(=O)N(c2cnn(C)c2)C2CCCN(C)C2)cc(C(C)C)c1 (centres unmarked) [Example 3], which IC50 is on record?
A: 10 to 50 µM

Q: For Cc1cc(C)cc(CC(=O)NS(=O)(=O)N(c2cnn(C)c2)C2CCCN(C)C2)c1 (centres unmarked) [Example 32], which IC50 is on record?
A: ≥ 50 µM

Q: How did the IC50 turn out when Cc1cc(CC(=O)NS(=O)(=O)N(c2cnn(C)c2)C2CCCN(C)C2)cc(C(F)(F)F)c1 (centres unmarked) [Example 2, N-[(1-Methyl-1H-pyrazol-4-yl)(1-methylpiperidin-3-yl)sulfamoyl]-2-[3-methyl-5-(trifluoromethyl)phenyl]acetamide] was run?
A: 10 to 50 µM

Q: CN1CCCC(N(c2cnn(C)c2)S(=O)(=O)NC(=O)Cc2c3c(cc4c2CCC4)CCC3)C1 (centres unmarked) [Example 17, 2-(1,2,3,5,6,7-Hexahydro-s-indacen-4-yl)-N-[(1-methyl-1H-pyrazol-4-yl)(1-methylpiperidin-3-yl)sulfamoyl]acetamide] was tested. Which IC50 did it give?
A: < 1 µM

Q: With CN1CCCC(N(c2cnn(C)c2)S(N)(=O)=NC(=O)Cc2c3c(cc4c2CCC4)CCC3)C1 (centres unmarked) [Example 13, N-{Amino[(1-methyl-1H-pyrazol-4-yl)(1-methylpiperidin-3-yl)amino]oxo-lambda6-sulfanylidene}-2-(1,2,3,5,6,7-hexahydro-s-indacen-4-yl)acetamide] as the compound, how does the IC50 read?
A: 3 to 10 µM

Q: With CC(C)c1cc(CC(=O)N=S(N)(=O)N(c2cnn(C)c2)C2CCCN(C)C2)c(C(C)C)s1 (centres unmarked) [Example 15, N-{Amino[(1-methyl-1H-pyrazol-4-yl)(1-methylpiperidin-3-yl)amino]oxo-lambda6-sulfanylidene}-2-[2,5-bis(propan-2-yl)thiophen-3-yl]acetamide] as the compound, how does the IC50 read?
A: 10 to 50 µM

Q: With CC(C)c1cc(CC(=O)NS(=O)(=O)N(CC2CCCO2)c2cnn(C)c2)cc(C(C)C)c1 (centres unmarked) [Example 38] as the compound, how does the IC50 read?
A: 10 to 50 µM

Q: For CN1CCCC(N(c2cnn(C)c2)S(=O)(=O)NC(=O)Cc2cc(Cl)cc(C(F)(F)F)c2)C1 (centres unmarked) [Example 4, 2-[3-Chloro-5-(trifluoromethyl)phenyl]-N-[(1-methyl-1H-pyrazol-4-yl)(1-methylpiperidin-3-yl)sulfamoyl]acetamide], which IC50 is on record?
A: 10 to 50 µM

Q: CC(C)c1ccc(C(C)C)c(CC(=O)NS(=O)(=O)N(C[C@@H]2CCCN2C)c2cnn(C)c2)c1 [Example 50] was tested. Which IC50 did it give?
A: ≥ 50 µM

Q: With CC(C)c1cc(CC(=O)NS(=O)(=O)N(C[C@@H]2CCCN2C)c2cnn(C)c2)cc(C(C)C)c1Cl [Example 55] as the compound, how does the IC50 read?
A: 10 to 50 µM

Q: Which IC50 does the source give for CC(=O)NCCN(c1cnn(C)c1)S(=O)(=O)NC(=O)Cc1c2c(cc3c1CCC3)CCC2 [Example 23, N-[(2-Acetamidoethyl)(1-methyl-1H-pyrazol-4-yl)sulfamoyl]-2-(1,2,3,5,6,7-hexahydro-s-indacen-4-yl)acetamide] here?
A: 10 to 50 µM

Q: For CN1CCC[C@H]1CN(c1cnn(C)c1)S(=O)(=O)NC(=O)Cc1c2c(cc3c1CCC3)CCC2 [Example 11, 2-(1,2,3,5,6,7-Hexahydro-s-indacen-4-yl)-N-[(1-methyl-1H-pyrazol-4-yl)({[(2S)-1-methylpyrrolidin-2-yl]methyl})sulfamoyl]acetamide], which IC50 is on record?
A: < 1 µM

Q: Which IC50 does the source give for CC(C)c1cc(CC(=O)NS(=O)(=O)N(C[C@H]2C[C@@H](F)CN2C)c2cnn(C)c2)cc(C(C)C)c1 [Example 39] here?
A: ≥ 50 µM
